The values that follow come from PubChem BioAssay (NCI).

Among the test systems are HCC-2998 colon; KM12 colon; M14 melanoma; MALME-3M melanoma; NCI-H23 lung; OVCAR-4 ovarian; SF-295 CNS; SNB-75 CNS; UACC-257 melanoma.
Experiment in all cases: growth of human tumour cells (NCI), 48 h

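How tested: cells in 96-well plates exposed to compound for 48 hours at five concentrations. GI50 is the concentration that inhibits growth by half. TGI denotes the concentration required for complete inhibition of growth.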

For the molecule `CCC[CH2][Sn]1([CH2]CCC)[O]C(c2ccccn2)S(=O)(=O)[O]1` (stereo not given), the GI50 in the experiment on HCC-2998 colon is 4.63 µM; in the experiment with KM12 colon, 12.7 µM; in the experiment on M14 melanoma it was 3.57 µM; in the experiment with MALME-3M melanoma, 1.63 µM; in the experiment on NCI-H23 lung, 1.72 µM; in the experiment with OVCAR-4 ovarian, 6.86 µM. Also, the GI50 in the experiment with SF-295 CNS was 2.94 µM; in the experiment on SNB-75 CNS it was 2.53 µM; in the experiment on UACC-257 melanoma it was 1.79 µM. The TGI in the experiment with HCC-2998 colon came to 18.3 µM; in the experiment on KM12 colon it was 26 µM; with M14 melanoma it was 11.2 µM; in the experiment on MALME-3M melanoma, 3.27 µM; in the experiment on NCI-H23 lung, 3.5 µM; in the experiment with OVCAR-4 ovarian, 20.1 µM. Moreover, the TGI in the experiment on SF-295 CNS was found to be 8.26 µM; in the experiment with SNB-75 CNS, 7.26 µM; in the experiment with UACC-257 melanoma, 3.29 µM.

For the molecule `CCOC(=O)C12CCCC1(O)N(NC(=O)c1cccc(Cl)c1)C(C)=C2C(=O)OC` (stereo not given), the TGI with HCC-2998 colon, in the experiment on KM12 colon, with M14 melanoma, in the experiment on MALME-3M melanoma, in the experiment with OVCAR-4 ovarian and in the experiment with SF-295 CNS was greater than 100 µM in each case. In addition, the TGI with SNB-75 CNS and in the experiment with UACC-257 melanoma was greater than 100 µM each time.

Consider `CSc1ccc(-c2cn3ccsc3n2)c(O)c1`, for which the TGI is greater than 100 µM in the experiment with HCC-2998 colon; greater than 100 µM in the experiment with KM12 colon; greater than 100 µM in the experiment with M14 melanoma; greater than 100 µM in the experiment on MALME-3M melanoma; greater than 100 µM with NCI-H23 lung; 98.7 µM in the experiment on OVCAR-4 ovarian. Also, the TGI in the experiment with SF-295 CNS was greater than 100 µM; in the experiment with SNB-75 CNS, greater than 94.7 µM; in the experiment on UACC-257 melanoma, greater than 100 µM.

On to `O=C(O)/C(Cl)=C(\Cl)Nc1cccc(C(F)(F)F)c1`, for which the TGI with HCC-2998 colon is greater than 100 µM; with M14 melanoma, 33.4 µM; in the experiment with MALME-3M melanoma, greater than 100 µM; in the experiment with NCI-H23 lung, greater than 100 µM; with OVCAR-4 ovarian it was greater than 100 µM; in the experiment on SF-295 CNS, greater than 100 µM. In the experiment with SNB-75 CNS, this molecule came in with a TGI greater than 100 µM.

With `COC(=O)C1=CC(O)CCC1c1ccc(OC)cc1` (stereo not given), the TGI in the experiment on HCC-2998 colon, with KM12 colon, in the experiment on M14 melanoma, in the experiment with MALME-3M melanoma, in the experiment on NCI-H23 lung and with OVCAR-4 ovarian was greater than 100 µM each time. For the same molecule, the TGI in the experiment on SF-295 CNS, in the experiment with SNB-75 CNS and with UACC-257 melanoma was greater than 100 µM throughout.

`CC[O-].CC[O-].[O-]c1ccccc1C=Nc1ccccc1.[O-]c1ccccc1C=Nc1ccccc1.[Ti+4]`: the GI50 was 82.9 µM in the experiment on HCC-2998 colon; 26.7 µM with KM12 colon; greater than 100 µM in the experiment on M14 melanoma; greater than 100 µM in the experiment on MALME-3M melanoma; greater than 100 µM in the experiment with NCI-H23 lung; greater than 100 µM with OVCAR-4 ovarian. The GI50 in the experiment on SF-295 CNS and in the experiment with UACC-257 melanoma was greater than 100 µM throughout. Further, the TGI with HCC-2998 colon, in the experiment with KM12 colon, with M14 melanoma, in the experiment with MALME-3M melanoma, with NCI-H23 lung and in the experiment with OVCAR-4 ovarian was greater than 100 µM in each case. For the same molecule, the TGI in the experiment on SF-295 CNS and in the experiment with UACC-257 melanoma was greater than 100 µM in each case.

In the case of `COC1=CC(=O)c2ccc(C(C)C)cc2C1(C)C1=NC(C)(C)CO1` (stereo not given), the TGI with KM12 colon, with M14 melanoma, in the experiment with MALME-3M melanoma, in the experiment with NCI-H23 lung, with OVCAR-4 ovarian and with SF-295 CNS was greater than 100 µM in each case. The TGI in the experiment on SNB-75 CNS and with UACC-257 melanoma was greater than 100 µM each time.

For `CN1CCC23c4c5ccc(O)c4OC2C(=NN=C2CCC4(O)C6Cc7ccc(O)c8c7C4(CCN6C)C2O8)CCC3(O)C1C5` (stereo not given), the TGI in the experiment with HCC-2998 colon, with KM12 colon, in the experiment with M14 melanoma, with MALME-3M melanoma, in the experiment with NCI-H23 lung and in the experiment on OVCAR-4 ovarian was greater than 100 µM throughout. Besides, the TGI with SF-295 CNS, in the experiment on SNB-75 CNS and in the experiment with UACC-257 melanoma was greater than 100 µM each time.

As to `C[C@]12CCC[C@H](OC=O)C1(O)C[C@H](C(=O)O)CC2` (stereo not given in full), the TGI with HCC-2998 colon, in the experiment with KM12 colon, with M14 melanoma, with MALME-3M melanoma, in the experiment on NCI-H23 lung and in the experiment with OVCAR-4 ovarian was greater than 100 µM throughout. In addition, the TGI in the experiment on SF-295 CNS, with SNB-75 CNS and in the experiment on UACC-257 melanoma was greater than 100 µM throughout.

Regarding `C/C(=N\O)c1sc(-n2nc(-c3ccccc3)cc2-c2ccccc2)nc1C`, the TGI in the experiment on HCC-2998 colon turned out to be 18.2 µM; with KM12 colon it was 17.3 µM; in the experiment on M14 melanoma, 18.3 µM; with MALME-3M melanoma, 31 µM; with NCI-H23 lung it was 15.1 µM; in the experiment with SF-295 CNS, 20.2 µM. The TGI was greater than 31.6 µM with SNB-75 CNS and 21.3 µM in the experiment on UACC-257 melanoma.

On to `c1cncc(C2c3[nH]c4ccccc4c3CCN2CCCN2CCCCC2)c1` (stereo not given), for which the TGI is greater than 100 µM in the experiment with HCC-2998 colon; greater than 100 µM with KM12 colon; 41.1 µM in the experiment on M14 melanoma; 92.5 µM with MALME-3M melanoma; greater than 100 µM in the experiment with NCI-H23 lung; greater than 100 µM in the experiment on OVCAR-4 ovarian. Moreover, the TGI in the experiment with SF-295 CNS, with SNB-75 CNS and in the experiment on UACC-257 melanoma was greater than 100 µM each time.

With `COc1ccc2cc(C(=O)c3ccccc3C(=O)O)ccc2c1`, the TGI in the experiment on HCC-2998 colon, in the experiment on KM12 colon, in the experiment with M14 melanoma, in the experiment on MALME-3M melanoma, in the experiment with NCI-H23 lung and in the experiment with OVCAR-4 ovarian was greater than 100 µM throughout. Also, the TGI with SF-295 CNS, in the experiment with SNB-75 CNS and with UACC-257 melanoma was greater than 100 µM each time.

For `CCc1ccccc1NC(=O)/C(CC(=O)c1c(C)n([O-])c2ccccc2[n+]1=O)=N\NS(=O)(=O)c1ccc(C)cc1`, the TGI with HCC-2998 colon was greater than 100 µM; with KM12 colon, greater than 100 µM; in the experiment with M14 melanoma, greater than 100 µM; in the experiment with MALME-3M melanoma, greater than 100 µM; with NCI-H23 lung, greater than 100 µM; with OVCAR-4 ovarian, 90.4 µM. In addition, the TGI with SF-295 CNS was greater than 100 µM; in the experiment on SNB-75 CNS, greater than 100 µM; with UACC-257 melanoma, 82.1 µM.

Regarding `COc1ccccc1/C=C/C(=O)c1sc(-c2cccnc2)nc1C`, the TGI in the experiment on HCC-2998 colon, with KM12 colon, with MALME-3M melanoma, in the experiment with NCI-H23 lung, in the experiment on SF-295 CNS and in the experiment with SNB-75 CNS was greater than 100 µM each time. In the experiment with UACC-257 melanoma, this molecule displayed a TGI greater than 100 µM.
